{
  "source": "the NIST ThermoML archive (doi:10.1016/j.jct.2012.05.009)",
  "experiment": "mn = molality of the nth substance listed, in mol/kg",
  "conditions": "101 kPa, Liquid, Vibrating tube method",
  "note": "± gives the expanded uncertainty stated by the source.",
  "data": [
    {"smiles": "CC(=O)CCCCn1c(=O)c2c(ncn2C)n(C)c1=O", "note": "[3,7-dimethyl-1-(5-oxohexyl)-3,7-dihydro-1H-purine-2,6-dione] + O", "values": [
      {"measurement": "mass density", "setting": "293.15 K, m1 = 0.09736", "result": "1003.77 ± 0.036", "unit": "kg/m3"},
      {"measurement": "mass density", "setting": "293.15 K, m1 = 0.0976", "result": "1003.77 ± 0.036", "unit": "kg/m3"},
      {"measurement": "mass density", "setting": "293.15 K, m1 = 0.09842", "result": "1003.81 ± 0.037", "unit": "kg/m3"},
      {"measurement": "mass density", "setting": "293.15 K, m1 = 0.09851", "result": "1003.83 ± 0.037", "unit": "kg/m3"},
      {"measurement": "mass density", "setting": "293.15 K, m1 = 0.1012", "result": "1003.97 ± 0.036", "unit": "kg/m3"},
      {"measurement": "mass density", "setting": "298.15 K, m1 = 0.09736", "result": "1002.51 ± 0.038", "unit": "kg/m3"},
      {"measurement": "mass density", "setting": "298.15 K, m1 = 0.0976", "result": "1002.51 ± 0.036", "unit": "kg/m3"},
      {"measurement": "mass density", "setting": "298.15 K, m1 = 0.09842", "result": "1002.55 ± 0.057", "unit": "kg/m3"},
      {"measurement": "mass density", "setting": "298.15 K, m1 = 0.09851", "result": "1002.57 ± 0.043", "unit": "kg/m3"},
      {"measurement": "mass density", "setting": "298.15 K, m1 = 0.1012", "result": "1002.7 ± 0.036", "unit": "kg/m3"},
      {"measurement": "mass density", "setting": "303.15 K, m1 = 0.09736", "result": "1001.02 ± 0.037", "unit": "kg/m3"},
      {"measurement": "mass density", "setting": "303.15 K, m1 = 0.0976", "result": "1001.02 ± 0.035", "unit": "kg/m3"},
      {"measurement": "mass density", "setting": "303.15 K, m1 = 0.09842", "result": "1001.06 ± 0.054", "unit": "kg/m3"},
      {"measurement": "mass density", "setting": "303.15 K, m1 = 0.09851", "result": "1001.08 ± 0.041", "unit": "kg/m3"},
      {"measurement": "mass density", "setting": "303.15 K, m1 = 0.1012", "result": "1001.21 ± 0.035", "unit": "kg/m3"},
      {"measurement": "mass density", "setting": "308.15 K, m1 = 0.09736", "result": "999.319 ± 0.035", "unit": "kg/m3"},
      {"measurement": "mass density", "setting": "308.15 K, m1 = 0.0976", "result": "999.32 ± 0.035", "unit": "kg/m3"},
      {"measurement": "mass density", "setting": "308.15 K, m1 = 0.09842", "result": "999.356 ± 0.037", "unit": "kg/m3"},
      {"measurement": "mass density", "setting": "308.15 K, m1 = 0.09851", "result": "999.381 ± 0.037", "unit": "kg/m3"},
      {"measurement": "mass density", "setting": "308.15 K, m1 = 0.1012", "result": "999.508 ± 0.035", "unit": "kg/m3"}
    ]}
  ]
}
